{"source": "patent EP4623911A1", "about": "“PI4KB INHIBITORS FOR THE TREATMENT OF FATTY LIVER DISEASE” (ETH Zurich, priority 2024, dated 2025)", "key": {"[1]": {"tested_on": "ATGL", "assay": "ATGL protein quantification via immunoblot in HepG2 cell type", "type": "cell-based, human", "method": "HepG2 cell type was cultured in RPMI medium with 10% FBS and 1% Pen/Strep on collagen-coated plates. Lipofectamine RNAiMAX reagent mediated siRNA (100 nM) was delivered to cells at the suspended state for 48 h. Different from HEK cells, it is not necessary to induce LDs via OA treatment in that there exist LDs in the HepG2 cell type at normal culture medium. The inventors treated HepG2 cells with 10 µM PF04620110 (DGAT1 inhibitor, Sigma) & PF-06424439 (DGAT2 inhibitor, Sigma) for 48 hours or with 5 µg/mL BFA (B5936, Sigma) for 6 hours to deplete LDs and intact Golgi in the HepG2 cell type respectively before glucose deprivation. To deprive glucose in the HepG2 cell type, we either added 2-DG at indicated concentrations to the culture medium or refresh cells with RPMI medium containing different glucose concentrations prepared from the same RPMI medium (Gibco, 11879020).\nAdipose depots, liver pieces, differentiated iBAs, HepG2, HEK293T and HEK293-AAV cell types were homogenized in RIPA buffer (50 mM Tris-HCl pH 7.4, 150 mM NaCl, 2 mM EDTA, 1.0% Triton X100, 0.5% sodium deoxycholate) with protease inhibitors (Complete, Roche) and phosphatase inhibitors (Halt phosphatase inhibitor cocktail, ThermoFisher). […] The concentration of WCE was determined by DC Protein Assay (Bio-Rad). […]"}, "[2]": {"tested_on": "wild-type mice", "assay": "Glucose deprivation by 2-DG administration in mice", "type": "in vivo", "method": "All animal experiments were permitted by the Veterinary office of the Canton of Zurich. Both female and male mice were used in the experiments, and they were housed 2-5 littermates per cage in ventilated cages at standard housing conditions (22°C, 12 h reversed light/dark cycle, dark phase starting at 7 am) with normal chow diet (18% proteins, 4.5% fibers, 4.5% fat, 6.3% ashes, Provimi Kliba SA) and water. Health status of all the mouse lines were monitored regularly based on FELASA guidelines. 8-10 weeks old C57BL/6N male mice were fasted for 24 h or injected with 2-DG (2 g/kg BW) to induce glucose deprivation for different durations. Female ROSA26-LSL-spCas9 mice (The Jackson Lab strain) were intravenously injected with AAV8-U6-Pi4kb gRNAs-TBG-Cre, AAV8-U6-Sacm1l gRNAs-TBG-Cre, AAV8-U6-Cu/7 gRNAs-TBG-Cre and AAV8-U6-Fbxw8 gRNAs-TBG-Cre virus pools to express six gRNAs targeting individual gene and CAS9 in the liver at a dose of 3×10^11 genome copies/mouse. Two weeks later, livers were harvested for protein and RNA extraction after 6 hours fasting. To determine liver TG levels under NCD feeding condition, 4 weeks after AAV administration livers were harvested after 6 hours fasting. Also 4 weeks after AAV administration, the liver specific Cul7&Fbxw8 double knockout mice were injected with 2-DG (2 g/kg BW) to induce 1 hour glucose deprivation prior to liver harvesting for protein extraction.\nAdipose depots, liver pieces, differentiated iBAs, HepG2, HEK293T and HEK293-AAV cell types were homogenized in RIPA buffer (50 mM Tris-HCl pH 7.4, 150 mM NaCl, 2 mM EDTA, 1.0% Triton X100, 0.5% sodium deoxycholate) with protease inhibitors (Complete, Roche) and phosphatase inhibitors (Halt phosphatase inhibitor cocktail, ThermoFisher). The homogenates were centrifuged at 12,000×g for 10 min at 4°C to remove debris and collect whole cell extract (WCE). The concentration of WCE was determined by DC Protein Assay (Bio-Rad). After boiling the sample with Lämmeli buffer at 95°C for 5 min, equal amount of proteins was loaded and separated on 12% SDS-PAGE. The proteins were transferred to nitrocellulose membrane and blotted by ATGL (1:1000, Cell Signaling), CGI-58 (1:1000, Proteintech), phospho-HSL(Ser660) (1:1000, Cell Signaling), PLIN1 (1:1000, Cell Signaling), HSL (1:1000, Cell Signaling), γ-tubulin (1:10000, Sigma), FLAG (1:10000, Sigma; 1:1000, Cell Signaling), MGL (1:1000, Abcam), HA (1:1000, Cell signaling), FBXW8 (1:100, Santa Cruz; 1:1000, Sigma), CUL7 (1:100, Santa Cruz), HSP90 (1:1000, Cell Signaling), K48 polyubiquitin (1:1000, Cell signaling), PI4KB (1:1000, Sigma), SACM1L (1:1000, Sigma), AKT1 (1:1000, Cell Signaling), phospho-AKT1(Ser473) (1:1000, Cell Signaling), TGN46 (1:1000, Abcam), MAOA (1:1000, Abcam), PLIN2 (1:1000, Abcam), PMP70 (1:10000, Sigma), Calnexin (1:1000, Cell Signaling), ARF1 (1:1000, Invitrogen), GAPDH (1:1000, Cell Signaling), RAB7 (1:1000, Cell Signaling), alpha 1 Sodium Potassium ATPase (1:1000, Abcam), Cleaved Caspase-3 (1:1000, Cell Signaling), phospho-AMPKα (Thr172) (1:1000, Cell Signaling), AMPKα (1:1000, Cell Signaling) and GM130 (1:1000, Proteintech). The primay antibody signal was visualized by HRP-conjugated secondary antibodies (1:5000, Millipore) and the ImageQuant system (GE Healthcare Life Sciences).\nFor mouse insulin measurement, plasma was collected at different timepoints after 2-DG administration in wild type mice. 5 µl plasma sample was used to determine insulin levels via Ultra-sensitive mouse insulin ELISA kit (Crystal Chem, Cat# 90080) according to the manufacturer's protocol. The absorbance was measured via Synergy Gen5 Platereader at 450/630 nm. 2 µl plasma sample was used to determine glucose levels via Glucose Assay Kit (Sigma, MAK263) according to the manufacturer's protocol. The absorbance was read at 570 nm in Synergy Gen5 Platereader.\nPlasma collected from mice under different conditions was used to determine levels of lipolysis and liver injury. […]"}, "[3]": {"tested_on": "ATGL", "assay": "Blocking of proteasome mediated degradation and autophagy, cellular ATGL protein", "type": "cell-based", "details": "proteasome blocked by MG132"}, "[4]": {"details": "1 hour after 2-DG administration"}}, "note": "Where a SMILES comes first, the peptide text is derived from it. The star is where a group is joined. Cbz = O=C(OCc1ccccc1)*"}
{"smiles": "O=CC[C@@H](O)[C@H](O)[C@H](O)CO", "note": "[2-DG, 2-Deoxy-D-glucose]", "values": [{"measurement": "ATGL protein abundance", "setting": "[1]; HepG2, 2-DG treatment (50 mM), transcript levels unchanged", "value": "strongly induced"}, {"measurement": "lipolysis (plasma FFA levels)", "setting": "[2]; 2-DG 2 g/kg BW, 1 h, 6 h and 12 h", "value": "significantly induced"}, {"measurement": "ATGL levels in livers of wild-type mice", "setting": "[2]; 2-DG for 1 hour, no upregulation in Cul7 and Fbxw8 double knockout", "value": "upregulation"}, {"measurement": "ATGL protein levels in the liver and iBAT", "setting": "[2]; 1 hour after 2-DG", "value": "increased"}, {"measurement": "HSL phosphorylation in white adipose tissues", "setting": "[2]; [4]", "value": "upregulation"}, {"measurement": "plasma insulin levels", "setting": "[2]; [4]", "value": "reduction"}, {"measurement": "ATGL protein levels in the liver, iBAT, iWAT and gWAT", "setting": "[2]; longer glucose deprivation (6 h, 12 h after 2-DG)", "value": "further accumulation"}]}
{"smiles": "C[C@H]1CCC/C=C/[C@@H]2C[C@H](O)C[C@H]2[C@H](O)/C=C/C(=O)O1", "note": "[BFA, Brefeldin A]", "values": [{"measurement": "intracellular ATGL levels upon glucose deprivation", "setting": "[1]; HepG2 after treatment with BFA (5 µg/mL, 6 hours)", "value": "failed to upregulate"}]}
{"smiles": "CC(C)C[C@@H](C=O)NC(=O)[C@H](CC(C)C)NC(=O)[C@H](CC(C)C)NC(=O)OCc1ccccc1", "note": "[MG132] (Cbz-Leu-Leu-Leu-aldehyde)", "values": [{"measurement": "cellular ATGL protein", "setting": "[3]", "value": "accumulation"}]}
